Among the data in PubChem BioAssay (NCI) are TGI values, retold here.

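Cells were grown in 96-well plates and exposed to each compound for 48 hours at five concentrations; endpoints were interpolated linearly between bracketing concentrations, or set to the highest concentration if not reached. TGI: concentration producing complete growth inhibition.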

Among the test systems are LXFL 529 NSCLC; DMS 114 small cell lung; XF 498 CNS; DLD-1 colon; SR leukemia; SN12K1 renal; HOP-18 NSCLC; M19-MEL melanoma; BT-549 breast; MDA-MB-231 breast; HS 578T breast; T-47D breast; DU-145 prostate; PC-3 prostate; MDA-MB-435.
Common to all, as to assay: NCI-60 cell line screen, 48 h

With `Nc1nc(SCc2ccc([N+](=O)[O-])cc2)nc2c1ncn2C1OC(COP(=O)(O)O)C(O)C1O` (stereo not given), the TGI in the experiment with LXFL 529 NSCLC, in the experiment with DMS 114 small cell lung, in the experiment with XF 498 CNS, in the experiment with DLD-1 colon and with SR leukemia was above 100 µM in each case.

Turning to `CC(NC(=O)C(C)NC(=O)C(N)CCP(C)(=O)O)C(=O)O` (stereo not given), the TGI in the experiment on SN12K1 renal, with HOP-18 NSCLC, with M19-MEL melanoma, with XF 498 CNS and in the experiment with DLD-1 colon was above 100 µM each time.

Turning to `C[Si](C)(OCCS(=O)(=O)O)C1(Cc2cccc3ccccc23)S(=O)(=O)OCCOS1(=O)=O`, the TGI in the experiment with BT-549 breast was found to be 33.5 µM; in the experiment on MDA-MB-231 breast it was 43.3 µM; with HS 578T breast, 95 µM; in the experiment on T-47D breast, 34.6 µM; with DU-145 prostate, 37.4 µM; in the experiment on PC-3 prostate it was 45.4 µM. The molecule also showed a TGI with MDA-MB-435 of 43 µM.

`Cc1ccc(N2Cc3c(ccc4ccccc34)OP2(=O)Oc2ccc(Cl)c(C)c2)cc1` (stereo not given): the TGI with SN12K1 renal, in the experiment with HOP-18 NSCLC, in the experiment with M19-MEL melanoma, with DMS 114 small cell lung, in the experiment on XF 498 CNS and in the experiment on DLD-1 colon was above 100 µM each time.

For the molecule `CC(C)OP(=O)(OC(C)C)/C(I)=N/Nc1ccc([N+](=O)[O-])cc1`, the TGI in the experiment with LXFL 529 NSCLC, with M19-MEL melanoma, in the experiment with DMS 114 small cell lung, in the experiment on XF 498 CNS, in the experiment on DLD-1 colon and in the experiment with SR leukemia was above 100 µM throughout.

In the case of `Cc1ccc(N=N/C(=N\NC(=O)c2ccc(C)cc2)c2ccc(N(CCC#N)CCC#N)cc2C)cc1`, the TGI with MDA-MB-231 breast was above 100 µM; with HS 578T breast, 70 µM; in the experiment with T-47D breast, above 100 µM; in the experiment with DU-145 prostate, above 100 µM; with PC-3 prostate it was above 100 µM; in the experiment with MDA-MB-435, 65.8 µM. The same molecule yielded a TGI in the experiment on SR leukemia above 100 µM.

For `N[C@H](C(=O)O)[C@H]1ON=C(Cl)[C@@H]1O`, the TGI with HS 578T breast is 97.5 µM; in the experiment with SN12K1 renal it was above 324 µM; in the experiment on HOP-18 NSCLC, above 550 µM; in the experiment on M19-MEL melanoma, above 550 µM; in the experiment on DMS 114 small cell lung, above 422 µM; in the experiment on XF 498 CNS, above 301 µM. Also, in the experiment with DLD-1 colon, the TGI is above 550 µM.

`COc1ccc(-n2cnnc2-c2nsc3ccccc23)cc1`: the TGI in the experiment with HOP-18 NSCLC, in the experiment with LXFL 529 NSCLC, with M19-MEL melanoma, with DMS 114 small cell lung and in the experiment on SR leukemia was above 100 µM each time.

As for `CC1=Nc2nc(Cl)cn2C(=O)C1(Cl)Cl`, the TGI with MDA-MB-231 breast, in the experiment on HS 578T breast, in the experiment with T-47D breast, with DU-145 prostate, in the experiment on PC-3 prostate and in the experiment on MDA-MB-435 was above 10 µM in each case. In the experiment with SR leukemia, this molecule registered a TGI above 10 µM.
